Target: PCSK9 (Homo sapiens, UniProt Q8NBP7)
Experiment: BODIPY-LDL uptake assay in HepG2 cells
Format: cell-based
Conditions: 5 μg/ml PCSK9, BODIPY-LDL
Protocol: BODIPY-LDL Uptake Assay in HepG2 Cells.
An established assay for PCSK9 inhibition features uptake of fluorescently labeled LDL nanoparticles (BODIPY-LDL) by hepatocytes and uptake of the BODIPY-containing particles is maximized in the absence of PCSK9.
In the LDL uptake assay, HepG2 cells were seeded at a density of 6×10^4 cells/well in a 96-well plate. After 24 h, the test compounds at various concentrations were pre-incubated with 5 μg/ml PCSK9 in 0.2% DMSO for 60 min prior to the addition on to the cells. After 16 h the medium was removed and 1 μg/ml BODIPY-LDL (Invitrogen) in serum free media was added and incubated for 5 h. Then the cells were washed twice with 0.25% BSA in PBS. Then the fluorescence of the cells in PBS was measured using TECAN multimode reader (Excitation: 485 nm and Emission: 520 nm). The readings were taken in triplicate and the final values were normalized with the protein concentration from respective wells. The wells without test compound containing external PCSK9 is considered as zero uptake and the one without PCSK9 was considered as 100% uptake. The percentage increase in LDL uptake for the test compounds were calculated using these values.

Chain of PCSK9 (Q8NBP7 153-692): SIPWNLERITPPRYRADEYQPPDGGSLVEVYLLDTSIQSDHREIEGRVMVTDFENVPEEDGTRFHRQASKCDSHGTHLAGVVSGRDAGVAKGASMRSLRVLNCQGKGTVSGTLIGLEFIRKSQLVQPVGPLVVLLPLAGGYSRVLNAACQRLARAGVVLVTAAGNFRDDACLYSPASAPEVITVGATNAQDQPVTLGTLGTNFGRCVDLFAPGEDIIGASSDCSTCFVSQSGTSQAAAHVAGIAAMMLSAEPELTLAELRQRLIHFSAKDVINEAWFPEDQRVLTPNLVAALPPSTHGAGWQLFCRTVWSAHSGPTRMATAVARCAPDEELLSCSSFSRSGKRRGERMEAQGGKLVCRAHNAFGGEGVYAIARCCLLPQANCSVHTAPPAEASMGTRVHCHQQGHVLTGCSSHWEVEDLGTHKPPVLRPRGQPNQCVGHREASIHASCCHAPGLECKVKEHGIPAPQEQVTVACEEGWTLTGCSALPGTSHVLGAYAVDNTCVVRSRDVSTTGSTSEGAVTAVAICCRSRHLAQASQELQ

Row | % increase in LDL Uptake (1 μM test compound) [%] | % increase in LDL Uptake (10 μM test compound) [%] | % increase in LDL Uptake (30 μM test compound) [%] | SMILES
1 | 41 | 76 | 72 | COC1(c2ccc(NC(=O)N3CCC(c4ccc(C(F)(F)F)cc4)CC3)cc2)COC1 [Example 5, N-(4-(3-methoxyoxetan-3-yl)phenyl)-4-(4-(trifluoromethyl)phenyl) piperidine-1-carboxamide]
2 | 21 | 32 | 34 | O=C(c1ccc(C2(OCCO)COC2)cc1)N1CC2CN(c3ccc(C(F)(F)F)cc3)CC2C1 (stereo not drawn) [Example 12, (4-(3-(2-hydroxyethoxy)oxetan-3-yl)phenyl)(5-(4-(trifluoromethyl)phenyl)hexahydropyrrolo[3,4-c]pyrrol-2(1H)-yl)methanone]
3 | 0 | 90 | 62 | CCS(=O)(=O)CCOC1(c2ccc(C(=O)N3CCC(c4ccc(C(F)(F)F)cc4)CC3)cc2)COC1 [Example 190, (4-(3-(2-(ethylsulfonyl)ethoxy)oxetan-3-yl)phenyl)(4-(4-(trifluoromethyl)phenyl)piperidin-1-yl)methanone]
4 | 50 | 0 | 0 | O=C(c1ccc(C2(O)COC2)cc1)N1CCC2(CC1)CCN(c1ccc(C(F)(F)F)cc1)CC2 [Example 99, (4-(3-hydroxyoxetan-3-yl)phenyl)(9-(4-(trifluoromethyl)phenyl)-3,9-diazaspiro[5.5]undecan-3-yl)methanone]
5 | 18 | 10 | 17 | O=C(c1ccc(C2(O)CS(=O)(=O)C2)cc1)N1CCC(c2ccc(C(F)(F)F)cc2)CC1 [Example 62, (4-(3-hydroxy-1,1-dioxidothietan-3-yl)phenyl)(4-(4-(trifluoromethyl)phenyl)piperidin-1-yl)methanone]
6 | −5 | 57 | −1 | CSc1ccc(C2=CC3CN(C(=O)c4ccc(C5(O)COC5)cc4)CC3C2)cc1 (stereo not drawn) [Example 131]
7 | 12 | 18 | 0 | O=C(c1ccc(C2(O)COC2)cc1)N1CCC(c2ccc(O)cc2)CC1 [Example 63, (4-(3-hydroxyoxetan-3-yl)phenyl)(4-(4-hydroxyphenyl)piperidin-1-yl)methanone]
8 | 20 | 38 | 27 | O=C(Nc1ccc(C2(O)COC2)cc1)N1CC2CN(c3ccc(C(F)(F)F)cc3)CC2C1 (stereo not drawn) [Example 75, N-(4-(3-hydroxyoxetan-3-yl)phenyl)-5-(4-(trifluoromethyl)phenyl) hexahydropyrrolo[3,4-c]pyrrole-2(1H)-carboxamide]
9 | 0 | 28 | 75 | O=C(c1cccc(C2(O)COC2)c1)N1CC2=C(C1)CN(c1ccc(C(F)(F)F)cc1)C2 [Example 96, (3-(3-hydroxyoxetan-3-yl)phenyl)(5-(4-(trifluoromethyl)phenyl)-3,4,5,6-tetrahydropyrrolo[3,4-c]pyrrol-2(1H)-yl)methanone]
10 | 31 | 65 | 36 | COC1(c2ccc(C(=O)N3CCC(c4cccc(C(F)(F)F)c4)CC3)cc2)COC1 [Example 37, (4-(3-methoxyoxetan-3-yl)phenyl)(4-(3-(trifluoromethyl)phenyl)piperidin-1-yl)methanone]
11 | 8 | 4 | 48 | O=C(c1ccc(C2(O)COC2)cc1)N1CCC(c2ccc(C(F)(F)F)cn2)CC1 [Example 212, (4-(3-hydroxyoxetan-3-yl)phenyl)(4-(5-(trifluoromethyl)pyridin-2-yl)piperidin-1-yl)methanone]
12 | 59 | 73 | 69 | O=C(c1ccc(C2(O)COC2)cc1)N1CCC(c2ccccc2C(F)(F)F)CC1 [Example 33, (4-(3-hydroxyoxetan-3-yl)phenyl)(4-(2-(trifluoromethyl)phenyl)piperidin-1-yl)methanone]
13 | 0 | 0 | 37 | [2H]C([2H])([2H])OC1(c2cccc(C(=O)N3CCC(c4ccc(C(F)F)cc4)CC3)c2)COC1 [Example 59, (4-(4-(difluoromethyl)phenyl)piperidin-1-yl)(3-(3-(methoxy-d3)oxetan-3-yl)phenyl) methanone]
14 | 5 | 29 | 31 | CC(C)(CCCCCOC1(c2ccc(C(=O)N3CCC(c4ccc(C(F)(F)F)cc4)CC3)cc2)COC1)C(=O)O [Example 109, 2,2-dimethyl-7-((3-(4-(4-(4-(trifluoromethyl)phenyl)piperidine-1-carbonyl)phenyl)oxetan-3-yl)oxy)heptanoic acid]
15 | 0 | 90 | 144 | O=C(c1ccc(C2(O)COC2)cc1)N1Cc2cn(-c3ccc(C(F)(F)F)cc3)cc2C1 [Example 93, (4-(3-hydroxyoxetan-3-yl)phenyl)(5-(4-(trifluoromethyl)phenyl)-3,5-dihydropyrrolo[3,4-c]pyrrol-2(1H)-yl)methanone]
16 | 0 | 22 | 18 | O=C(c1cccc(C2(O)COC2)c1)N1CCC(c2ccc(C(F)(F)F)c(F)c2)CC1 [Example 121, (4-(3-fluoro-4-(trifluoromethyl)phenyl)piperidin-1-yl)(3-(3-hydroxyoxetan-3-yl)phenyl)methanone]
17 | 0 | 41 | 28 | COC1(c2ccc(C(=O)N3CCC(c4ccc(C(F)(F)F)cc4)CC3)cc2)CCOCC1 [Example 143, (4-(4-methoxytetrahydro-2H-pyran-4-yl)phenyl)(4-(4-(trifluoromethyl)phenyl)piperidin-1-yl)methanone]
18 | 3 | 19 | 26 | O=C(c1cccc(C2(OCC3CC3)COC2)c1)N1CC2CN(c3ccc(C(F)(F)F)cc3)CC2C1 (stereo not drawn) [Example 181, (3-(3-(cyclopropylmethoxy)oxetan-3-yl)phenyl)(5-(4-(trifluoromethyl)phenyl)hexahydropyrrolo[3,4-c]pyrrol-2(1H)-yl)methanone]
19 | 14 | 21 | 38 | COc1ccc(C2CCN(C(=O)c3ccc(C4(O)COC4)cc3)CC2)cc1 [Example 27, (4-(3-hydroxyoxetan-3-yl)phenyl)(4-(4-methoxyphenyl)piperidin-1-yl)methanone]
20 | 38 | 22 | 19 | OC1(c2ccc(-c3nc(-c4ccc(C(F)(F)F)c(F)c4)no3)cc2)COC1 [Example 16, 3-(4-(3-(3-fluoro-4-(trifluoromethyl)phenyl)-1,2,4-oxadiazol-5-yl)phenyl) oxetan-3-ol]
21 | 29 | 43 | 33 | O=C(O)COC1(c2ccc(C(=O)N3CC4CN(c5ccc(C(F)(F)F)cc5)CC4C3)cc2)COC1 (stereo not drawn) [Example 13, 2-((3-(4-(5-(4-(trifluoromethyl)phenyl)octahydropyrrolo[3,4-c]pyrrole-2-carbonyl)phenyl)oxetan-3-yl)oxy)acetic acid]
22 | 0 | 5 | 128 | O=C(c1ccc(C2(O)COC2)cc1)N1CCN(c2ccc(C(F)(F)F)nc2)CC1 [Example 217, (4-(3-hydroxyoxetan-3-yl)phenyl)(4-(6-(trifluoromethyl)pyridin-3-yl)piperazin-1-yl) methanone]
23 | 0 | 0 | 76 | O=C(c1ccc(C2(O)COC2)cc1)N1CCC(c2ccc(C(F)F)cc2)CC1 [Example 69, (4-(4-(difluoromethyl)phenyl)piperidin-1-yl)(4-(3-hydroxyoxetan-3-yl)phenyl)methanone]
24 | 43 | 51 | 25 | COC1(c2ccc(C(=O)N3CCC(c4ccc(C(F)(F)F)c(F)c4)CC3)cc2)COC1 [Example 38, (4-(3-fluoro-4-(trifluoromethyl)phenyl)piperidin-1-yl)(4-(3-methoxyoxetan-3-yl)phenyl)methanone]
25 | 11 | 12 | 14 | CC(C)OC1(c2ccc(C(=O)N3CC4CN(c5ccc(C(F)(F)F)cc5)CC4C3)cc2)COC1 (stereo not drawn) [Example 136, (4-(3-isopropoxyoxetan-3-yl)phenyl)(5-(4-(trifluoromethyl)phenyl)hexahydropyrrolo[3,4-c]pyrrol-2(1H)-yl)methanone]
26 | 34 | 0 | 0 | CC(C)(C)OC(=O)N1CCC(O)(c2ccc(C(=O)N3CCC(c4ccc(C(F)(F)F)cc4)CC3)cc2)C1 (stereo not drawn) [Example 151, tert-butyl 3-hydroxy-3-(4-(4-(4-(trifluoromethyl)phenyl)piperidine-1-carbonyl)phenyl)pyrrolidine-1-carboxylate]

Source: patent publication US20230089247A1, “NOVEL COMPOUNDS SUITABLE FOR THE TREATMENT OF DYSLIPIDEMIA” (ZYDUS LIFESCIENCES LIMITED, priority 2019, published 2023)
